Tests used:
[1] = in vitro; assay type: cell-based, human; conditions: human, differentiated hl-60 cells, 300 μmol/L, about 24 hours, PMA-differentiated HL-60 cells, LDH; no-treatment 0%, cell lysis buffer 100%; read-out: cytotoxicity (%) Evaluation compound results
Outline: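 Cytotoxicity (%) from supernatant LDH activity after ~24 h treatment at 300 μmol/L final, normalised to no-treatment (0%) and lysis buffer (100%). Cells were PMA-differentiated (10 nM, ~72 h) HL-60 in 2% FBS medium; triplicate means.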

[2] = Study for confirmation of conversion to brexpiprazole in a buffer (stability of the evaluation compounds); assay type: physicochemical; conditions: in buffer, average of duplicate; for Concentration of brexpiprazole formed: 60-minute reaction sample; for Concentration of evaluation compound decreased: decrease in 60-minute vs 0-minute reaction sample
Outline: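 Compounds (final 1 μmol/L, from 100 μmol/L working solutions) incubated in buffer at 37° C. for 0 or 60 min, in duplicate, after 3 min pre-incubation of the reaction solution. Reactions stopped with acetonitrile/isopropanol (4:1) containing internal standards; compound and formed brexpiprazole quantified against 0.01–1 μmol/L calibration samples.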

For `COC(=O)[C@H](COP(=O)([O-])OC[N+]1(CCCCOc2ccc3ccc(=O)[nH]c3c2)CCN(c2cccc3sccc23)CC1)NC(=O)OC(C)(C)C` [EX 83, (S)-(4-(benzo[b]thiophen-4-yl)-1-(4-((2-oxo-1,2-dihydroquinolin-7-yl)oxy)butyl)piperazin-1-ium-1-yl)methyl (2-(tert-butoxycarbonyl)amino)-3-methoxy-3-oxopropyl) phosphate], the cytotoxicity at 24 h, 300 µM [1] was -5%, the “Concentration of brexpiprazole formed” value [2] was 0 nM and the “Concentration of evaluation compound decreased” value [2] was 70 nM.
In the case of `O=c1ccc2ccc(OCCCC[N+]3(COP(=O)([O-])OCCCOc4ccccc4)CCN(c4cccc5sccc45)CC3)cc2[nH]1` [EX 84, 4-(benzo[b]thiophen-4-yl)-1-(4-((2-oxo-1,2-dihydroquinolin-7-yl)oxy)butyl)piperazin-1-ium-1-yl)methyl (3-phenoxypropyl) phosphate], the cytotoxicity at 24 h, 300 µM [1] was 1%, the “Concentration of brexpiprazole formed” value [2] was 0 nM and the “Concentration of evaluation compound decreased” value [2] was 10 nM.
With `CC(C)COP(=O)([O-])OC[N+]1(CCCCOc2ccc3ccc(=O)[nH]c3c2)CCN(c2cccc3sccc23)CC1` [EX 90, (4-(benzo[b]thiophen-4-yl)-1-(4-(2-oxo-1,2-dihydroquinolin-7-yl)oxy)butyl)piperazin-1-ium-1-yl)methyl isobutyl phosphate] the cytotoxicity at 24 h, 300 µM [1] was -6%, the “Concentration of brexpiprazole formed” value [2] was 0 nM and the “Concentration of evaluation compound decreased” value [2] was -30 nM.
With `O=c1ccc2ccc(OCCCC[N+]3(COP(=O)([O-])OCC4CC4)CCN(c4cccc5sccc45)CC3)cc2[nH]1` [EX 91, (4-(benzo[b]thiophen-4-yl)-1-(4-((2-oxo-1,2-dihydroquinolin-7-yl)oxy)butyl)piperazin-1-ium-1-yl)methyl (cyclopropylmethyl) phosphate] the cytotoxicity at 24 h, 300 µM [1] was 17%, the “Concentration of brexpiprazole formed” value [2] was 0 nM and the “Concentration of evaluation compound decreased” value [2] was 120 nM.
In the case of `O=c1ccc2ccc(OCCCC[N+]3(COP(=O)([O-])OCCCCCO)CCN(c4cccc5sccc45)CC3)cc2[nH]1` [EX 92], the cytotoxicity at 24 h, 300 µM [1] was -7%, the “Concentration of brexpiprazole formed” value [2] was 0 nM and the “Concentration of evaluation compound decreased” value [2] was 110 nM.
With `O=c1ccc2ccc(OCCCC[N+]3(COP(=O)([O-])OCCOCCO)CCN(c4cccc5sccc45)CC3)cc2[nH]1` [EX 93, (4-(benzo[b]thiophen-4-yl)-1-(4-((2-oxo-1,2-dihydroquinolin-7-yl)oxy)butyl)piperazin-1-ium-1-yl)methyl (2-(2-hydroxyethoxy)ethyl) phosphate] the cytotoxicity at 24 h, 300 µM [1] was -6%, the “Concentration of brexpiprazole formed” value [2] was 0 nM and the “Concentration of evaluation compound decreased” value [2] was -10 nM.
For `CCOCCOP(=O)([O-])OC[N+]1(CCCCOc2ccc3ccc(=O)[nH]c3c2)CCN(c2cccc3sccc23)CC1` [EX 94, (4-(benzo[b]thiophen-4-yl)-1-(4-((2-oxo-1,2-dihydroquinolin-7-yl)oxy)butyl)piperazine-1-ium-1-yl)methyl (2-ethoxyethyl) phosphate], the cytotoxicity at 24 h, 300 µM [1] was -8%, the “Concentration of brexpiprazole formed” value [2] was 0 nM and the “Concentration of evaluation compound decreased” value [2] was -70 nM.
For `CCCOCCOP(=O)([O-])OC[N+]1(CCCCOc2ccc3ccc(=O)[nH]c3c2)CCN(c2cccc3sccc23)CC1` [EX 95, (4-(benzo[b]thiophen-4-yl)-1-(4-((2-oxo-1.2-dihydroquinolin-7-yl)oxy)butyl)piperazin-1-ium-1-yl)methyl (2-propoxyethyl) phosphate], the cytotoxicity at 24 h, 300 µM [1] was -4%, the “Concentration of brexpiprazole formed” value [2] was 0 nM and the “Concentration of evaluation compound decreased” value [2] was -10 nM.
In the case of `CCCCOCCOP(=O)([O-])OC[N+]1(CCCCOc2ccc3ccc(=O)[nH]c3c2)CCN(c2cccc3sccc23)CC1` [EX 96, (4-(benzo[b]thiophen-4-yl)-1-(4-((2-oxo-1,2-dihydroquinolin-7-yl)oxy)butyl)piperazin-1-ium-1-yl)methyl (2-butoxyethyl) phosphate], the cytotoxicity at 24 h, 300 µM [1] was 12%, the “Concentration of brexpiprazole formed” value [2] was 0 nM and the “Concentration of evaluation compound decreased” value [2] was 30 nM.
For `CCOCCCOP(=O)([O-])OC[N+]1(CCCCOc2ccc3ccc(=O)[nH]c3c2)CCN(c2cccc3sccc23)CC1` [EX 97, (4-(benzo[b]thiophen-4-yl)-1-(4-((2-oxo-1.2-dihydroquinolin-7-yl)oxy)butyl)piperazin-1-ium-1-yl)methyl (3-ethoxypropyl) phosphate], the cytotoxicity at 24 h, 300 µM [1] was -2%, the “Concentration of brexpiprazole formed” value [2] was 0 nM and the “Concentration of evaluation compound decreased” value [2] was 90 nM.
In the case of `CCOCCOCCOP(=O)([O-])OC[N+]1(CCCCOc2ccc3ccc(=O)[nH]c3c2)CCN(c2cccc3sccc23)CC1` [EX 98, (4-(benzo[b]thiophen-4-yl)-1-(4-((2-oxo-1,2-dihydroquinolin-7-yl)oxy)butyl)piperazin-1-ium-1-yl)methyl (2-(2-ethoxyethoxy)ethyl) phosphate], the cytotoxicity at 24 h, 300 µM [1] was -8%, the “Concentration of brexpiprazole formed” value [2] was 0 nM and the “Concentration of evaluation compound decreased” value [2] was -20 nM.
In the case of `CC1(C)O[C@H]2[C@@H](O1)[C@@H](COP(=O)([O-])OC[N+]1(CCCCOc3ccc4ccc(=O)[nH]c4c3)CCN(c3cccc4sccc34)CC1)O[C@@H]1OC(C)(C)O[C@@H]12` [EX 100, (4-(benzo[b]thiophen-4-yl)-1-(4-((2-oxo-1,2-dihydroquinolin-7-yl)oxy)butyl)piperazin-1-ium-1-yl)methyl (((3aR,5R,5aS,8aS,8bR)-2,2,7,7-tetramethyltetrahydro-5H-bis([1,3]dioxolo)[4,5-b:4′,5′-d]pyran-5-yl)methyl)phosphate], the cytotoxicity at 24 h, 300 µM [1] was -3%, the “Concentration of brexpiprazole formed” value [2] was 0 nM and the “Concentration of evaluation compound decreased” value [2] was 50 nM.
For `CC(=O)OCCCCCCOP(=O)([O-])OC[N+]1(CCCCOc2ccc3ccc(=O)[nH]c3c2)CCN(c2cccc3sccc23)CC1` [EX 101, 6-acetoxyhexyl ((4-(benzo[b]thiophen-4-yl)-1-(4-((2-oxo-1,2-dihydroquinolin-7-yl)oxy)butyl)piperazin-1-ium-1-yl)methyl) phosphate], the cytotoxicity at 24 h, 300 µM [1] was 16%, the “Concentration of brexpiprazole formed” value [2] was 0 nM and the “Concentration of evaluation compound decreased” value [2] was 80 nM.
In the case of `CC(C)(C)C(=O)OCCCCCCOP(=O)([O-])OC[N+]1(CCCCOc2ccc3ccc(=O)[nH]c3c2)CCN(c2cccc3sccc23)CC1` [EX 102, (4-(benzo[b]thiophen-4-yl)-1-(4-((2-oxo-1,2-dihydroquinolin-7-yl)oxy)butyl)piperazin-1-ium-1-yl)methyl (6-(pivaloyloxy)hexyl) phosphate], the cytotoxicity at 24 h, 300 µM [1] was 16%, the “Concentration of brexpiprazole formed” value [2] was 0 nM and the “Concentration of evaluation compound decreased” value [2] was 70 nM.
For `CCOC(=O)[C@@H](C)OP(=O)([O-])OC[N+]1(CCCCOc2ccc3ccc(=O)[nH]c3c2)CCN(c2cccc3sccc23)CC1` [EX 103, (R)-(4-(benzo[b]thiophen-4-yl)-1-(4-((2-oxo-1,2-dihydroquinolin-7-yl)oxy)butyl)piperazin-1-ium-1-yl)methyl(1-ethoxy-1-oxopropan-2-yl) phosphate], the cytotoxicity at 24 h, 300 µM [1] was 3%, the “Concentration of brexpiprazole formed” value [2] was 0 nM and the “Concentration of evaluation compound decreased” value [2] was -10 nM.
For `CCOC(=O)[C@H](C)OP(=O)([O-])OC[N+]1(CCCCOc2ccc3ccc(=O)[nH]c3c2)CCN(c2cccc3sccc23)CC1` [EX 104, (S)-(4-(benzo[b]thiophen-4-yl)-1-(4-((2-oxo-1,2-dihydroquinolin-7-yl)oxy)butyl)piperazin-1-ium-1-yl)methyl (1-ethoxy-1-oxopropan-2-yl) phosphate], the cytotoxicity at 24 h, 300 µM [1] was -5%, the “Concentration of brexpiprazole formed” value [2] was 0 nM and the “Concentration of evaluation compound decreased” value [2] was 200 nM.
